How the values were obtained:
[1] = system: experimental autoimmune encephalomyelitis (EAE); test: Rat experimental autoimmune encephalomyelitis (EAE) model, preventive treatment; format: in vivo
Description: A further study was carried out to study the impact of Lp-PLA2 inhibitors on modulating M1/M2 imbalance. In this study, rats were induced to develop experimental autoimmune encephalomyelitis (EAE) by immunization with myelin basic protein (MBP) antigen and treated with a known Lp-PLA2 inhibitor: 5-((9-Methoxy-4-oxo-6,7-dihydro-4H-pyrimido[6,1-a]isoquinolin-2-yl)oxy)-2-(3-(trifluoromethyl)phenoxy)benzonitrile (See PCT application no. PCT/CN2011/001597). In this preventive treatment model, the compound was administered at day 0 (day of immunization) and continued to administer until day 22. The study lasted for 25 days. Rats were subsequently monitored for symptoms of EAE. Rats were immunized with MBP to develop EAE and symptoms were monitored daily. Plasma Lp-PLA2 activity, OxLDL, and LysoPC concentration were determined at different time points through the course of EAE.

[2] = system: proinflammatory (M1) and anti-inflammatory (M2) markers; test: Ex vivo analysis of M1 and M2 markers in macrophages of EAE rats by realtime PCR; design: species or system rat; conditions: splenic macrophages day 13 post MBP-immunization and CNS infiltrating macrophages
Description: Ex vivo analysis of proinflammatory (M1) and anti-inflammatory (M2) markers in control and compound treated EAE rats. Splenic macrophages were harvested at day 13 post MBP-immunization and assayed for expression of a variety of markers by realtime PCR. CNS infiltrating cells were harvested and macrophages were analyzed for expression of M1 and M2 markers by realtime PCR.

In the case of `COc1ccc2c(c1)CCn1c-2cc(Oc2ccc(Oc3cccc(C(F)(F)F)c3)c(C#N)c2)nc1=O` [5-((9-Methoxy-4-oxo-6,7-dihydro-4H-pyrimido[6,1-a]isoquinolin-2-yl)oxy)-2-(3-(trifluoromethyl)phenoxy)benzonitrile], the “Lp-PLA2 activity in rat EAE plasma” value ([1]; rat EAE plasma) is reported as “decreased”, the “LysoPC levels in rat EAE plasma” value ([1]; rat EAE plasma) is reported as “decreased” and the clinical disease ([1]; rat EAE, administered day 0 until day 22) is reported as “reduction in clinical disease”. The M1 markers [2] was “decrease” and the M2 markers [2] was “increase”.

From patent US20150344485A1, “BICYCLIC PYRIMIDONE COMPOUNDS AS INHIBITORS OF LP-PLA2” (GLAXOSMITHKLINE INTELLECTUAL PROPERTY DEVELOPMENT LIMITED, priority 2013, published 2015)
